Consider 15 compounds from US11802135B2, “Lysophosphatidic acid derivative” (MITSUBISHI TANABE PHARMA CORPORATION, priority 2021, dated 2023).

Where a name gives a salt, the structure may show the parent alone. Read-outs that look alike come from different tables or passages of the source.

The target in one data set is T1, human LPA4 receptor (Homo sapiens, UniProt Q99677).
T1 construct: expressed in transfected cells; host or cells: rat hepatocellular carcinoma cell line RH7777, targeted integration at the rRosa26 site
T1 sequence (Q99677 whole entry): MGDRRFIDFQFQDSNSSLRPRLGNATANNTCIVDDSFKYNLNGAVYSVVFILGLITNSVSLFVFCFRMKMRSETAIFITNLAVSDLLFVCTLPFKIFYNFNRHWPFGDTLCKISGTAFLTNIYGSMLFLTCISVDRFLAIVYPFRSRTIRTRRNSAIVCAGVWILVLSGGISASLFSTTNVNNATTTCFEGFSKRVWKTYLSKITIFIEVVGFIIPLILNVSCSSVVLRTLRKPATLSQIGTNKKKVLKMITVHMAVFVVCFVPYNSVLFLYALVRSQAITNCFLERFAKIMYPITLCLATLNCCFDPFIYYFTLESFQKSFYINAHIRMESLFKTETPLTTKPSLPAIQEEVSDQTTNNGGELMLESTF
Description: LPA4/SRE-luc reporter assay in RH7777 cells stably expressing human LPA4 receptor and SRE-Luc2. Type of data set: cell-based. Here is the method:
(§1) A stably expressing cell line that constantly expresses the human LPA4 receptor and SRE-Luc2 was established by the gene targeting introduction method of the rat hepatocellular carcinoma cell line RH7777 into rRosa26 site. Similarly, stably expressing cell lines for human LPA1 receptor and SRE-Luc2 were also established. Each cell line was seeded on a collagen-coated dish and maintained in culture, and cells were collected with trypsin EDTA and the required number (5×10^3 cells/well) was seeded on a 96-well plate. After culturing overnight at 37° C., LPA (Avanti Polar Lipids, Inc.) or each Example compound diluted with an assay medium added or not added with BSA was added, and the cells were cultured at 37° C. for 6 hr. Thereafter, a luciferase detection reagent (Bright-Glo, Promega) was added, and the chemiluminescence amount was quantified with an Envision (registered trade mark) multi-label counter (PerkinElmer) and used as an index of agonist activity.
(§2) The EC50 value of LPA or each Example compound was calculated using the […] Graph pad Prism for Windows ver.5.02 and ver.7.04. % Emax was expressed as the ratio of the maximum response (Emax) of LPA or each Example compound to the maximum response (Emax) of the positive control compound VPC 31144S (N-{(1S)-2-hydroxy-1-[(phosphonooxy)methyl]ethyl}(9Z) cctadec-9-enamide), with the Emax of the positive control compound VPC 31144S as 100%.

The test system of a further data set is Balb/c nu/nu mouse. Briefly: Gel blood flow ratio in mice transplanted with Matrigel containing basicFGF. The following applies: 3 mg/kg tail vein once per day, day 5 to 7 after transplantation; vs solvent administration group, t-test p<0.01. Type of data set: in vivo. The protocol: A 5-week-old male Balb/c nu/nu mouse (CLEA Japan, Inc.) was subcutaneously transplanted with 500 μL of Matrigel (Corning) admixed with recombinant mouse basicFGF (Biobyt Ltd.) to a final concentration of 200 ng/mL. The test compound was dissolved in a 50% aqueous ethanol solution at a concentration of 10 mg/mL to give a stock solution, diluted with phosphate-buffered saline (PBS) immediately before administration, and used for consecutive administration into the tail vein of mouse at a dose of 3 mg/kg once per day from the 5th day to the 7th day of the transplantation. On the 7th day of transplantation, after 4 hours from the administration of the test compound, Genhance750 (PerkinElmer) was administered to the tail vein, and 20 min later under isoflurane anesthesia, whole body fluorescence at 800 nm was imaged using an in vivo analyzer (IVIS Spectrum, PerkinElmer) at an excitation wavelength of 745 nm. The gel blood flow ratio was calculated by dividing the radiance of Matrigel by the radiance of the auricle.

The target of the next data set is T2, human LPA1 receptor (Homo sapiens, UniProt Q92633).
T2 construct: expressed in transfected cells; host or cells: rat hepatocellular carcinoma cell line RH7777 (made 'similarly' to the LPA4 line)
T2 sequence (Q92633 whole entry): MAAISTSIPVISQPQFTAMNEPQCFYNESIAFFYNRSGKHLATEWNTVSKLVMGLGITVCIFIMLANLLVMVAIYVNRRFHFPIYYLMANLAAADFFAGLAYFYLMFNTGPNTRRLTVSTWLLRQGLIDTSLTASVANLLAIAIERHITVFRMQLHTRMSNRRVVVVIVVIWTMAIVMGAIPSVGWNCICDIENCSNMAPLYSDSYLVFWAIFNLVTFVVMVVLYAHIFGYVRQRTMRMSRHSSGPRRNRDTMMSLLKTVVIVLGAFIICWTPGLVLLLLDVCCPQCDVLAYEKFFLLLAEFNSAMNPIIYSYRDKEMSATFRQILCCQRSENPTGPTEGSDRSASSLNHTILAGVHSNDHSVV
Description: LPA1/SRE-luc reporter assay in RH7777 cells stably expressing human LPA1 receptor and SRE-Luc2. Type of data set: cell-based. The protocol:
as §1, §2

In data set [1] the test system is mouse lung cancer cell line LLC-1. Briefly: Tumor volume in mice transplanted with LLC-1, combination with paclitaxel. Type of data set: in vivo. The protocol:
An 8-week-old female […] mouse (Nippon SLC) was subcutaneously transplanted with 1×10^6 cells/100 μL of mouse lung cancer cell line LLC-1 suspended in D-MEM medium containing 50% Matrigel (Corning). On the 9th day after transplantation of the cell line, 8 mice were grouped such that the tumor volume and body weight were uniform (Day 0). The tumor volume was calculated by measuring the minor axis and the major axis of the tumor with a vernier caliper (minor axis x minor axis x major axis/2). Example compound 16 was intraperitoneally administered every day from Day 0 at a dose of 30 mg/kg. As an existing anticancer drug, paclitaxel (paclitaxel injection, Pfizer) was intraperitoneally administered to mice at a dose of 20 mg/kg twice in total on Day 3 and Day 10. The tumor volume of each group was calculated every other day from Day 0 to Day 15. Phosphate-buffered saline in the same amount as the drug solution was administered to the solvent administration group.

A short description of data set [2]: Evaluation of chemical stability, preserved at 60° C. (sealed) for a week, UPLC. Type of data set: physicochemical. Here is the method:
About 0.5 mg of each of test sample (lysophosphatidic acid (LPA) and Example compound 16) preserved at 60° C. (sealed) for a week and non-preserved sample (at the start of testing) was weighed, and dissolved in a mixed solution (1 mL) of acetonitrile/water (1:1) to prepare test solutions. Test was performed by the liquid chromatographic method under the following conditions, and individual peak area % was determined. It was measured by Waters ACQUITY UPLC under the following conditions. • Detector: photodiode array (measurement wavelength 220 nm) • Column: Waters ACQUITY BEH C18 (2.1 mm×100 mm, 1.7 μm) • Column temperature: constant temperature around 40° C. • Mobile phase: Solution A; […] ammonium acetate in water (pH 8.5), • Solution B; […] ammonium acetate in acetonitrile/water (17:3) (pH8.5) • Concentration gradient control: B % 2→100% (15 min) • Flow rate: 0.5 mL/min • Injection volume: […] <Experimental Results>

Setting [3] is: BSA not added, read-out: LPA4/SRE-luc EC50.
Where [4] appears, read: RH7777, read-out: LPA4/SRE-luc % Emax.
[5] abbreviates: BSA not added, read-out: LPA1/SRE-luc EC50.
Where [6] appears, read: BSA added, read-out: LPA4/SRE-luc EC50.
The mark [7] stands for this setting: RH7777, BSA added, Emax of positive control VPC 31144S as 100%, read-out: LPA4/SRE-luc % Emax.
Setting [8] is: BSA added, read-out: LPA1/SRE-luc EC50.

Take `CCc1ccc(CCCCCCCCC(=O)N2CC(OP(=O)(O)O)C2)cc1` [Example 16, 1-[9-(4-Ethylphenyl)nonanoyl]azetidin-3-yl dihydrogen phosphate]: the EC50 on human LPA4 receptor (setting [3]) was 12 nM; at human LPA1 receptor (setting [5]) it was > 10000 nM. On human LPA4 receptor (setting [4]), the Emax stood at 162%. For the same compound, in the data set on Balb/c nu/nu mouse, the “gel blood flow ratio” value is given as “significantly increased”.
As for `CCc1ccc(CCCCCCCCC(=O)N2CC(OP(=O)(O)O)C2)cc1` [Example compound 16, 1-[9-(4-Ethylphenyl)nonanoyl]azetidin-3-yl dihydrogen phosphate], in data set [1] (30 mg/kg i.p. every day combined with paclitaxel 20 mg/kg, vs paclitaxel alone group, t-test p<0.01), the “tumor volume on Day 15” value is listed as “further reduced significantly”. In addition, the “chemical stability in comparison with LPA” value in data set [2] (60° C. (sealed) for a week) is given as “high chemical stability”. Moreover, the “total ratio (%) of increment of related substances” value in data set [2] (60° C., humidity without artificial control, 1 week) was found to be 1.29%.
As for `CCCCc1ccc(CCCCCCCCC(=O)N2CC(OP(=O)(O)O)C2)cc1` [Example compound 70, 1-[9-(4-Butylphenyl)nonanoyl]azetidin-3-yl dihydrogen phosphate ammonium salt], the results for the EC50 on human LPA4 receptor (setting [3]) and on human LPA1 receptor (setting [5]) were < 41 nM and > 10000 nM, respectively. Also, the Emax at human LPA4 receptor (RH7777, BSA not added, Emax of positive control VPC 31144S as 100%, read-out: LPA4/SRE-luc % Emax) is 239%. Also, the “gel blood flow ratio” value in the data set with Balb/c nu/nu mouse is “significantly increased”.
With `O=C(CCCCCCCCc1ccc(-c2ccccc2)cc1)N1CC(OP(=O)(O)O)C1` [Example compound 82, 1-[9-(Biphenyl-4-yl)nonanoyl]azetidin-3-yl dihydrogen phosphate], the EC50 on human LPA4 receptor (setting [6]) is 1.9 nM; at human LPA1 receptor (setting [8]), > 10000 nM. In addition, the Emax at human LPA4 receptor (setting [7]) was found to be 129%. Also, the “gel blood flow ratio” value in the data set with Balb/c nu/nu mouse is given as “significantly increased”.
Turning to `CC(C)(C)c1ccc(CCCCCCCCC(=O)N2CC(OP(=O)(O)O)C2)cc1` [Example compound 84, 1-[9-(4-tert-Butylphenyl)nonanoyl]azetidin-3-yl dihydrogen phosphate], the EC50 at human LPA4 receptor (setting [6]) was 4.1 nM; at human LPA1 receptor (setting [8]), > 3000 nM. Further, the Emax on human LPA4 receptor (setting [7]) came to 94%. Further, the “gel blood flow ratio” value with Balb/c nu/nu mouse was “significantly increased”.
As to `CCCCCCCc1ccc(CCCCC(=O)N2CC(OP(=O)(O)O)C2)c(C(F)(F)F)c1` [Example compound 100, 1-{5-[4-Heptyl-2-(trifluoromethyl)phenyl]pentanoyl}azetidin-3-yl dihydrogen phosphate ammonium salt], the figures for the EC50 on human LPA4 receptor (setting [6]) and on human LPA1 receptor (setting [8]) were 40 nM and > 10000 nM, respectively. The Emax on human LPA4 receptor (setting [7]) was 108%.
With `CCCc1ccc(CCCCCCCCC(=O)N(CCOP(=O)(O)O)Cc2cncs2)cc1` [Example compound 102, 2-{[9-(4-Propylphenyl)nonanoyl] (1,3-thiazol-5-ylmethyl)amino}ethyl dihydrogen phosphate ammonium salt], the EC50 at human LPA4 receptor (setting [6]) was 47 nM; at human LPA1 receptor (setting [8]), > 10000 nM. In addition, the Emax on human LPA4 receptor (setting [7]) turned out to be 121%.
Regarding `COc1ccc(CN(CCOP(=O)(O)O)C(=O)CCCCc2ccc(OCCc3ccc(OC(F)(F)F)cc3)cc2)cc1` [Example compound 115, 2-{(4-Methoxybenzyl)[5-(4-{2-[4-(trifluoromethoxy)phenyl]ethoxy}phenyl)pentanoyl]amino}ethyl dihydrogen phosphate ammonium salt], the EC50 at human LPA4 receptor (setting [6]) was < 41 nM; on human LPA1 receptor (setting [8]), > 10000 nM. On human LPA4 receptor (setting [7]), the Emax came to 114%.
Regarding `CCCCCCc1ccc(CCCCCCCCC(=O)N2CC(OP(=O)(O)O)C2)cc1` [Example compound 118, 1-[9-(4-Hexylphenyl)nonanoyl]azetidin-3-yl dihydrogen phosphate], the EC50 at human LPA4 receptor (setting [6]) was < 41 nM; on human LPA1 receptor (setting [8]) it was > 10000 nM. On human LPA4 receptor (setting [7]), the Emax worked out at 114%.
Regarding `COc1ccc(CN(CCOP(=O)(O)O)C(=O)CCCCCc2cccc(CCCCC3CCCCC3)c2)cc1` [Example compound 129, 2-[{6-[3-(4-Cyclohexylbutyl)phenyl]hexanoyl}(4-methoxybenzyl)amino]ethyl dihydrogen phosphate ammonium salt], the EC50 on human LPA4 receptor (setting [6]) is < 41 nM; at human LPA1 receptor (setting [8]) it was > 10000 nM. Moreover, on human LPA4 receptor (setting [7]), the Emax was determined as 120%.
On to `CCCCCCCCCCCOc1cccc(-c2ccnc(NC[C@@H](C)OP(=O)(O)O)c2)c1` [Example compound 133, (2R)-1-({4-[3-(Undecyloxy)phenyl]pyridin-2-yl}amino)propan-2-yl dihydrogen phosphate], for which the EC50 on human LPA4 receptor (setting [6]) is < 41 nM; on human LPA1 receptor (setting [8]), > 10000 nM. Moreover, on human LPA4 receptor (setting [7]), the Emax is 101%.
With `CCCCCCCCCCCOc1cccc(-c2ccnc(NC[C@@H](C)OP(=O)(O)O)n2)c1` [Example compound 134, (2R)-1-({4-[3-(Undecyloxy)phenyl]pyrimidinyl}amino)propan-2-yl dihydrogen phosphate], the EC50 is < 41 nM at human LPA4 receptor (setting [6]) and > 10000 nM at human LPA1 receptor (setting [8]). Moreover, the Emax on human LPA4 receptor (setting [7]) was determined as 87%.
Turning to `CCCCCCCCCCCOc1cccc(-c2ccnc(NC[C@@H](C)OP(O)(O)=S)c2)c1` [Example compound 138, O-[(2R)-1-({4-[3-(Undecyloxy)phenyl]pyridin-2-yl}amino)propan-2-yl] dihydrogen phosphorothioate-ammonium salt], the EC50 on human LPA4 receptor was < 41 nM; on human LPA1 receptor, > 10000 nM. For the same compound, the Emax at human LPA4 receptor (setting [4]) came to 73%.
As for `CCCCCCCCCCCOc1cccc(-c2ccnc(N[C@@H]3CCC[C@@H]3OP(=O)(O)O)c2)c1` [Example compound 142, (1S,2R)-2-({4-[3-(Undecyloxy)phenyl]pyridin-2-yl}amino)cyclopentyl dihydrogen phosphate ammonium salt], the EC50 at human LPA4 receptor (setting [6]) was 43 nM; on human LPA1 receptor (setting [8]), > 10000 nM. Moreover, the Emax at human LPA4 receptor (setting [7]) worked out at 103%.
For `CC(=O)O[C@H]1C(=O)[C@@]2(C)[C@H]([C@H](OC(=O)c3ccccc3)[C@]3(O)C[C@H](OC(=O)[C@H](O)[C@@H](NC(=O)c4ccccc4)c4ccccc4)C(C)=C1C3(C)C)[C@]1(OC(C)=O)CO[C@@H]1C[C@@H]2O` [paclitaxel, reference compound], the “tumor volume on Day 15” value in data set [1] (paclitaxel alone 20 mg/kg i.p. Day 3 and Day 10, vs solvent administration group, t-test p<0.05) is recorded as “significantly smaller”.
